ChEMBL document CHEMBL1157406, “Cytotoxic metabolites from the fungal endophyte Alternaria sp. and their subsequent detection in its host plant Polygonum senegalense” (J Nat Prod, 2008)

test system: L5178Y; assay: Cytotoxicity against mouse L5178Y cells at 10 ug/ml by MTT assay; format: functional

Structure (SMILES) | Activity [%]
Cc1cc(=O)c2c(C)cc(O)cc2o1 | 95
COc1cc(O)c2c(=O)oc3cc(OS(=O)(=O)O)cc(C)c3c2c1 | 89
CC[C@H](C)[C@@H]1NC(=O)C(C(C)=O)=C1O [TENUAZONIC ACID] | 57.9
